Experimental data taken from patent publication US12215140B2, “Method of stabilizing protein contained in specimen and solution for stabilizing protein contained in specimen” (EIKEN KAGAKU KABUSHIKI KAISHA, priority 2018, dated 2025).

System: hemoglobin-haptoglobin complex
Assay: Stability of hemoglobin (as hemoglobin-haptoglobin complex) in samples preserved at 37° C. in preservation solution containing 1 unit/L haptoglobin, Hb measured by latex agglutination method (Examples 1 to 7)
Set-up: species or system human
How it was run: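 Hemoglobin (~300 µg/L) in 0.5% fecal suspension, or without feces, held at 37 °C for 0–21 days in 40 mmol/L HEPES pH 6.8, 0.1% BSA, 0.1% NaN3, 1 unit/L haptoglobin, with 0–100 mmol/L phenylboronic acid ± sugars. Hb quantified by latex agglutination with anti-human Hb rabbit polyclonal; recovery (%) relative to day 0.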

[1] = Feces 1, phenylboronic acid 0.5 mmol/L, 37° C., 0 days
[2] = Feces 1, phenylboronic acid 0.5 mmol/L, 37° C., 7 days
[3] = Feces 1, phenylboronic acid 0.5 mmol/L, 37° C., 14 days
[4] = Feces 1, phenylboronic acid 0.5 mmol/L, 37° C., 21 days
[5] = Feces 1, phenylboronic acid 1 mmol/L, 37° C., 0 days
[6] = Feces 1, phenylboronic acid 1 mmol/L, 37° C., 14 days
[7] = Feces 1, phenylboronic acid 1 mmol/L, 37° C., 21 days
[8] = Feces 1, phenylboronic acid 15 mmol/L, 37° C., 0 days
[9] = Feces 1, phenylboronic acid 15 mmol/L, 37° C., 7 days
[10] = Feces 1, phenylboronic acid 15 mmol/L, 37° C., 14 days
[11] = Feces 1, phenylboronic acid 15 mmol/L, 37° C., 21 days
[12] = Feces 1, phenylboronic acid 50 mmol/L, 37° C., 0 days
[13] = Feces 1, phenylboronic acid 50 mmol/L, 37° C., 7 days
[14] = Feces 1, phenylboronic acid 50 mmol/L, 37° C., 14 days
[15] = Feces 1, phenylboronic acid 50 mmol/L, 37° C., 21 days
[16] = Feces 1, phenylboronic acid 100 mmol/L, 37° C., 0 days
[17] = Feces 1, phenylboronic acid 100 mmol/L, 37° C., 7 days
[18] = Feces 1, phenylboronic acid 100 mmol/L, 37° C., 14 days
[19] = Feces 1, phenylboronic acid 100 mmol/L, 37° C., 21 days
[20] = Feces 2, phenylboronic acid 0.5 mmol/L, 37° C., 0 days
[21] = Feces 2, phenylboronic acid 0.5 mmol/L, 37° C., 7 days
[22] = Feces 2, phenylboronic acid 0.5 mmol/L, 37° C., 14 days
[23] = Feces 2, phenylboronic acid 0.5 mmol/L, 37° C., 21 days
[24] = Feces 2, phenylboronic acid 1 mmol/L, 37° C., 7 days
[25] = Feces 2, phenylboronic acid 1 mmol/L, 37° C., 14 days
[26] = Feces 2, phenylboronic acid 1 mmol/L, 37° C., 21 days
[27] = Feces 2, phenylboronic acid 15 mmol/L, no sugar, 0 days at 37° C.
[28] = Feces 2, phenylboronic acid 15 mmol/L, no sugar, 7 days at 37° C.
[29] = Feces 2, phenylboronic acid 15 mmol/L, no sugar, 14 days at 37° C.
[30] = Feces 2, phenylboronic acid 15 mmol/L, no sugar, 21 days at 37° C.
[31] = Feces 2, phenylboronic acid 15 mmol/L, 37° C., 0 days
[32] = Feces 2, phenylboronic acid 15 mmol/L, 37° C., 7 days
[33] = Feces 2, phenylboronic acid 15 mmol/L, 37° C., 14 days
[34] = Feces 2, phenylboronic acid 15 mmol/L, 37° C., 21 days
[35] = Feces 2, phenylboronic acid 50 mmol/L, 37° C., 0 days
[36] = Feces 2, phenylboronic acid 50 mmol/L, 37° C., 7 days
[37] = Feces 2, phenylboronic acid 50 mmol/L, 37° C., 21 days
[38] = Feces 2, phenylboronic acid 100 mmol/L, 37° C., 0 days
[39] = Feces 2, phenylboronic acid 100 mmol/L, 37° C., 7 days
[40] = Feces 2, phenylboronic acid 100 mmol/L, 37° C., 14 days
[41] = Feces 2, phenylboronic acid 100 mmol/L, 37° C., 21 days

With `OB(O)c1ccccc1` [phenylboronic acid] the “recovery ratio of hemoglobin in the samples” value (Feces 1, Feces 2, Feces 3, phenylboronic acid at 0.5 mmol/L or more) was “improved”, the Hb concentration [1] was 279 µg/L and the “Recovery ratio with respect to Hb concentration after 0 days” value (from here on “Recovery ratio … after 0 days”) [1] was 100%. For the same molecule, the Hb concentration [2] was 181 µg/L, the “Recovery ratio … after 0 days” value [2] was 65% and the Hb concentration [3] was 147 µg/L. For the same molecule, the “Recovery ratio … after 0 days” value [3] was 53%, the Hb concentration [4] was 129 µg/L and the “Recovery ratio … after 0 days” value [4] was 46%. The Hb concentration [5] was 275 µg/L, the “Recovery ratio … after 0 days” value [5] was 100% and the “Recovery ratio … after 0 days” value (Feces 1, phenylboronic acid 1 mmol/L, 37° C., 7 days) was 66%. The Hb concentration [6] was 148 µg/L, the “Recovery ratio … after 0 days” value [6] was 54% and the Hb concentration [7] was 125 µg/L. The “Recovery ratio … after 0 days” value [7] was 45%, the Hb concentration [8] was 302 µg/L and the “Recovery ratio … after 0 days” value [8] was 100%. For the same molecule, the Hb concentration [9] was 243 µg/L, the “Recovery ratio … after 0 days” value [9] was 80% and the Hb concentration [10] was 239 µg/L. For the same molecule, the “Recovery ratio … after 0 days” value [10] was 79%, the Hb concentration [11] was 224 µg/L and the “Recovery ratio … after 0 days” value [11] was 74%. For the same molecule, the Hb concentration [12] was 290 µg/L, the “Recovery ratio … after 0 days” value [12] was 100% and the Hb concentration [13] was 230 µg/L. The “Recovery ratio … after 0 days” value [13] was 79%, the Hb concentration [14] was 204 µg/L and the “Recovery ratio … after 0 days” value [14] was 70%. For the same molecule, the Hb concentration [15] was 185 µg/L, the “Recovery ratio … after 0 days” value [15] was 64% and the Hb concentration [16] was 271 µg/L. The “Recovery ratio … after 0 days” value [16] was 100%, the Hb concentration [17] was 186 µg/L and the “Recovery ratio … after 0 days” value [17] was 69%. The Hb concentration [18] was 137 µg/L, the “Recovery ratio … after 0 days” value [18] was 51% and the Hb concentration [19] was 97 µg/L. The “Recovery ratio … after 0 days” value [19] was 36%, the Hb concentration [20] was 271 µg/L and the “Recovery ratio … after 0 days” value [20] was 100%. The Hb concentration [21] was 147 µg/L, the “Recovery ratio … after 0 days” value [21] was 54% and the Hb concentration [22] was 113 µg/L. For the same molecule, the “Recovery ratio … after 0 days” value [22] was 42%, the Hb concentration [23] was 91 µg/L and the “Recovery ratio … after 0 days” value [23] was 34%. For the same molecule, the “Recovery ratio … after 0 days” value (Feces 2, phenylboronic acid 1 mmol/L, 37° C., 0 days) was 100%, the Hb concentration [24] was 166 µg/L and the “Recovery ratio … after 0 days” value [24] was 58%. The Hb concentration [25] was 136 µg/L, the “Recovery ratio … after 0 days” value [25] was 48% and the Hb concentration [26] was 116 µg/L. The “Recovery ratio … after 0 days” value [26] was 41%, the Hb concentration [27] was 283 µg/L and the “Recovery ratio … after 0 days” value [27] was 100%. The Hb concentration [28] was 249 µg/L, the “Recovery ratio … after 0 days” value [28] was 88% and the Hb concentration [29] was 214 µg/L. The “Recovery ratio … after 0 days” value [29] was 76%, the Hb concentration [30] was 191 µg/L and the “Recovery ratio … after 0 days” value [30] was 67%. The Hb concentration [31] was 283 µg/L, the “Recovery ratio … after 0 days” value [31] was 100% and the Hb concentration [32] was 249 µg/L. The “Recovery ratio … after 0 days” value [32] was 88%, the Hb concentration [33] was 214 µg/L and the “Recovery ratio … after 0 days” value [33] was 76%. For the same molecule, the Hb concentration [34] was 191 µg/L, the “Recovery ratio … after 0 days” value [34] was 67% and the Hb concentration [35] was 269 µg/L. The “Recovery ratio … after 0 days” value [35] was 100%, the Hb concentration [36] was 214 µg/L and the “Recovery ratio … after 0 days” value [36] was 80%. For the same molecule, the “Recovery ratio … after 0 days” value (Feces 2, phenylboronic acid 50 mmol/L, 37° C., 14 days) was 65%, the Hb concentration [37] was 149 µg/L and the “Recovery ratio … after 0 days” value [37] was 55%. The Hb concentration [38] was 250 µg/L, the “Recovery ratio … after 0 days” value [38] was 100% and the Hb concentration [39] was 139 µg/L. The “Recovery ratio … after 0 days” value [39] was 56%, the Hb concentration [40] was 80 µg/L and the “Recovery ratio … after 0 days” value [40] was 32%. For the same molecule, the Hb concentration [41] was 36 µg/L, the “Recovery ratio … after 0 days” value [41] was 14% and the Hb concentration (Feces 3, phenylboronic acid 0.5 mmol/L, 37° C., 0 days) was 283 µg/L.
